Experimental findings from US20250213707A1, “COMPOUND FOR INCREASING EFFICACY OF ONCOLYTIC VIRUSES” (ABLEVIA BIOTECH GMBH, priority 2022, published 2025) are described below.

The test system of the first experiment is IgG from human donors (anti-AAV antibodies). Kind of experiment: Screen for anti-AAV antibodies in human sera, 2452 linear 15-amino-acid AAV peptides on microarrays (Table 1). The class given is binding. Also on record: key to group I: X: the deduplicated aggregate of the respective top 10 peptide hits for each donor was compiled and designated as group I; key to group II: X: the deduplicated aggregate of the respective top 25 peptide hits for each donor was compiled and designated as group II; key to group III: X: the deduplicated aggregate of the respective top 50 peptide hits for each donor was compiled and designated as group III. As to conditions: membership in deduplicated aggregate of top 10 peptide hits for each donor; human donor IgG binding to linear 15-amino-acid AAV peptides on microarray, fluorescence. A digest of the protocol:
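Peptide hits were grouped I to IV by pooling each donor's top 10, 25, 50 or 250 background-corrected fluorescence signals, after deduplication. Signals came from donor IgG, purified on protein G, bound to arrayed 15-residue linear peptides (2452 total) spanning 16 AAV sequences.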
For the substance “TAPGKKRPVDQSPQ (REGION 1..14: note = peptide derived from viral capsid protein) [SEQ ID NO: 1923]”, the “group I” value is listed as “X”.

Consider “TESVPDPQPIGEPP (REGION 1..14: note = peptide derived from viral capsid protein) [SEQ ID NO: 1929]”, for which the “group I” value is reported as “X”.

As for TGDSESVPDPQPIG [SEQ ID NO: 1967], the “group I” value is listed as “X”.

On to “YHLNGRDSLVNPGP (REGION 1..14: note = peptide derived from viral capsid protein) [SEQ ID NO: 1904]”, for which the “group I” value is recorded as “X”.

Turning to YYKSTNVDFAVNTE [SEQ ID NO: 1916], the “group I” value is reported as “X”.

The experiment is the same for the next values; noted with them: membership in deduplicated aggregate of top 25 peptide hits for each donor; human donor IgG binding to linear 15-amino-acid AAV peptides on microarray, fluorescence.
With “TAPGKKRPVDQSPQ (REGION 1..14: note = peptide derived from viral capsid protein) [SEQ ID NO: 1923]”, the “group II” value was “X”.

Consider “TESVPDPQPIGEPP (REGION 1..14: note = peptide derived from viral capsid protein) [SEQ ID NO: 1929]”, for which the “group II” value is “X”.

For TGDSESVPDPQPIG [SEQ ID NO: 1967], the “group II” value is given as “X”.

“YHLNGRDSLVNPGP (REGION 1..14: note = peptide derived from viral capsid protein) [SEQ ID NO: 1904]”: the “group II” value is “X”.

With YYKSTNVDFAVNTE [SEQ ID NO: 1916], the “group II” value is on record as “X”.

Staying with this experiment, now noted: membership in deduplicated aggregate of top 50 peptide hits for each donor; human donor IgG binding to linear 15-amino-acid AAV peptides on microarray, fluorescence.
With “TAPGKKRPVDQSPQ (REGION 1..14: note = peptide derived from viral capsid protein) [SEQ ID NO: 1923]”, the “group III” value was “X”.

For “TESVPDPQPIGEPP (REGION 1..14: note = peptide derived from viral capsid protein) [SEQ ID NO: 1929]”, the “group III” value is “X”.

Take TGDSESVPDPQPIG [SEQ ID NO: 1967]: the “group III” value is “X”.

“YHLNGRDSLVNPGP (REGION 1..14: note = peptide derived from viral capsid protein) [SEQ ID NO: 1904]”: the “group III” value is recorded as “X”.

As to YYKSTNVDFAVNTE [SEQ ID NO: 1916], the “group III” value is “X”.

A further experiment has as its system polyclonal antibody ab6982. Kind of experiment: Epitope mapping of polyclonal antibody ab6982 against cyclic peptides of Ad5 fiber and hexon (peptide array). Type of experiment: binding, rabbits. To be noted: cyclic peptides of fiber protein (clusters 1-7). An excerpt: Polyclonal antibody ab6982 (Abcam) was generated by immunizing rabbits with purified AdV. It reacts with all capsid proteins of Ad5 including hexon, fiber and penton. It was shown that the antibody neutralizes Ad5 infection in a bioassay at 1000 adenovirus 5 particles/ml, a 50% inactivation of the adenovirus can be achieved at a 1/25,000 dilution of the antibody. In order to identify epitopic regions that could contain peptides for ab6982 paratope binding, the antibody was mapped against the sequences of fiber (NCBI Reference Sequence: AP 000226.1) and hexon protein (GenBank: BAG48782.1). […] The binding signal of this antibody to the array yielded several peptides that were aligned and clustered against the sequence of the protein. The peptide clusters were named cluster1-7 (fiber protein) and clusters8-16 (hexon protein) according to their ranked order of cyclic peptide hits (i.e. cluster contains the strongest binders, cluster2 the second strongest etc.). Below are the aligments of the corresponding peptides that bind to polyclonal antibody ab6982.
Regarding 173 (SMSFSWD) [compound 173], the “antibody binding signal ranking from the microarray experiment” value (“antibody binding signal ranking” below) was 144.

With 174 (SWDWSGHNYI) [compound 174], the “antibody binding signal ranking” value was 149.

Turning to 175 (AYSMSFS) [compound 175], the “antibody binding signal ranking” value worked out at 167.

Take 176 (SMSFSWDWSGHNY) [compound 176]: the “antibody binding signal ranking” value turned out to be 176.

In the case of 177 (FSWDWSG) [compound 177], the “antibody binding signal ranking” value was determined as 186.

Consider 178 (SWDWSGH) [compound 178], for which the “antibody binding signal ranking” value was determined as 193.

In the case of 179 (FLDPEYWNFR) [compound 179], the “antibody binding signal ranking” value came to 017.

Regarding 180 (SFLDPEYWNF) [compound 180], the “antibody binding signal ranking” value is recorded as 018.

181 (PEYWNFR) [compound 181]: the “antibody binding signal ranking” value is listed as 031.

For the substance 182 (LNNSFLDPEYWNF) [compound 182], the “antibody binding signal ranking” value was determined as 033.

Take 183 (NNSFLDPEYWNFR) [compound 183]: the “antibody binding signal ranking” value came to 034.

184 (FLDPEYW) [compound 184]: the “antibody binding signal ranking” value is 050.

For the substance 185 (DPEYWNF) [compound 185], the “antibody binding signal ranking” value is on record as 053.

Take 186 (NNSFLDPEYW) [compound 186]: the “antibody binding signal ranking” value is listed as 068.

As to 187 (VLLNNSFLDPEYW) [compound 187], the “antibody binding signal ranking” value amounted to 088.

As for 188 (EYWNFRN) [compound 188], the “antibody binding signal ranking” value amounted to 113.

With 189 (LNNSFLDPEY) [compound 189], the “antibody binding signal ranking” value was determined as 114.

On to 190 (LDPEYWNFRN) [compound 190], for which the “antibody binding signal ranking” value was 155.

Regarding 191 (LNNSFLD) [compound 191], the “antibody binding signal ranking” value was found to be 180.

As for 192 (NSFLDPEYWN) [compound 192], the “antibody binding signal ranking” value amounted to 187.

193 (SSYTFSY) [compound 193]: the “antibody binding signal ranking” value is on record as 042.

Turning to 194 (FATSSYTFSY) [compound 194], the “antibody binding signal ranking” value turned out to be 043.

As for 195 (YINEIFATSSYTF) [compound 195], the “antibody binding signal ranking” value was 055.

For 196 (SYTFSYI) [compound 196], the “antibody binding signal ranking” value stood at 064.

197 (ATSSYTF) [compound 197]: the “antibody binding signal ranking” value came out at 080.

198 (EIFATSSYTF) [compound 198]: the “antibody binding signal ranking” value is given as 089.

For the substance 199 (NEIFATSSYTFSY) [compound 199], the “antibody binding signal ranking” value is reported as 092.

With 200 (ATSSYTFSYI) [compound 200], the “antibody binding signal ranking” value came out at 097.

Regarding 201 (HNYINEIFATSSY) [compound 201], the “antibody binding signal ranking” value is 099.

Turning to 202 (IFATSSY) [compound 202], the “antibody binding signal ranking” value is on record as 104.

Take 203 (INEIFATSSY) [compound 203]: the “antibody binding signal ranking” value is listed as 110.

For 204 (NYINEIFATSSYT) [compound 204], the “antibody binding signal ranking” value was 119.

Consider 205 (YINEIFA) [compound 205], for which the “antibody binding signal ranking” value came out at 168.

For the substance 206 (YTFSYIA) [compound 206], the “antibody binding signal ranking” value was found to be 181.

With 207 (EIFATSSYTFSYI) [compound 207], the “antibody binding signal ranking” value is 200.

Staying with this experiment, now noted: cyclic peptides of hexon protein (clusters 8-16).
For the substance 208 (ALEINLEEEDDDN) [compound 208], the “antibody binding signal ranking” value was determined as 01.

Turning to 209 (ATALEINLEEEDD) [compound 209], the “antibody binding signal ranking” value stood at 02.

With 210 (EAATALEINLEEE) [compound 210], the “antibody binding signal ranking” value is given as 03.

On to 211 (LEINLEE) [compound 211], for which the “antibody binding signal ranking” value is on record as 04.

With 212 (TALEINLEEEDDD) [compound 212], the “antibody binding signal ranking” value is 05.

213 (EINLEEE) [compound 213]: the “antibody binding signal ranking” value stood at 06.

Take 214 (ALEINLEEED) [compound 214]: the “antibody binding signal ranking” value amounted to 07.

On to 215 (LEINLEEEDD) [compound 215], for which the “antibody binding signal ranking” value worked out at 08.

For the substance 216 (TALEINLEEE) [compound 216], the “antibody binding signal ranking” value was 09.

With 217 (DEAATALEINLEE) [compound 217], the “antibody binding signal ranking” value came to 11.

Consider 218 (LEINLEEEDDDNE) [compound 218], for which the “antibody binding signal ranking” value was 13.

219 (AATALEINLEEED) [compound 219]: the “antibody binding signal ranking” value amounted to 14.

As to 220 (EINLEEEDDD) [compound 220], the “antibody binding signal ranking” value is given as 15.

Consider 221 (ATALEINLEE) [compound 221], for which the “antibody binding signal ranking” value was determined as 19.

As to 222 (INLEEEDDDN) [compound 222], the “antibody binding signal ranking” value came out at 23.

As to 223 (NLEEEDDDNE) [compound 223], the “antibody binding signal ranking” value stood at 27.

Turning to 224 (DEVDEQA) [compound 224], the “antibody binding signal ranking” value was 10.

Turning to 225 (EDDDNEDEVDEQA) [compound 225], the “antibody binding signal ranking” value stood at 12.

Regarding 226 (DDNEDEVDEQAEQ) [compound 226], the “antibody binding signal ranking” value amounted to 16.

Regarding 227 (EVDEQAE) [compound 227], the “antibody binding signal ranking” value stood at 17.

As to 228 (DNEDEVDEQA) [compound 228], the “antibody binding signal ranking” value stood at 18.

On to 229 (VDEQAEQ) [compound 229], for which the “antibody binding signal ranking” value was found to be 20.

Take 230 (EDEVDEQAEQQKT) [compound 230]: the “antibody binding signal ranking” value is 21.

Take 231 (EDEVDEQAEQ) [compound 231]: the “antibody binding signal ranking” value amounted to 22.

As for 232 (DEVDEQAEQQKTH) [compound 232], the “antibody binding signal ranking” value came out at 24.

Consider 233 (NEDEVDEQAEQQK) [compound 233], for which the “antibody binding signal ranking” value is 25.

For 234 (DEVDEQAEQQ) [compound 234], the “antibody binding signal ranking” value was determined as 26.

As to 235 (EINLEEEDDDNED) [compound 235], the “antibody binding signal ranking” value is listed as 028.

Consider 236 (NLEEEDDDNEDEV) [compound 236], for which the “antibody binding signal ranking” value was 029.

For the substance 237 (INLEEED) [compound 237], the “antibody binding signal ranking” value is 032.

In the case of 238 (LEEEDDDNED) [compound 238], the “antibody binding signal ranking” value came to 034.

Consider 239 (INLEEEDDDNEDE) [compound 239], for which the “antibody binding signal ranking” value is 035.

Consider 240 (DDDNEDEVDEQAE) [compound 240], for which the “antibody binding signal ranking” value is recorded as 037.

In the case of 241 (LEEEDDDNEDEVD) [compound 241], the “antibody binding signal ranking” value is reported as 053.
